The source made the active and inactive calls. No cut-off for these calls is given here.
Assays:
[1] = target: Cholinesterase (Equus caballus, UniProt P81908); assay: Inhibition of equine serum BuChE using S-butyrylthiocholine iodide as substrate pre-incubated for 30 mins followed by substrate addition and measured after 5 mins by DTNB reagent based Ellman's method
[2] = target: T1, Acetylcholinesterase (Electrophorus electricus, UniProt O42275); assay: Inhibition of electric eel AChE using acetylthiocholine iodide as substrate pre-incubated for 30 mins followed by substrate addition and measured after 5 mins by DTNB reagent based Ellman's method
[3] = in vitro; settings: PAMPA, pH 7.4
Description: Permeability of the compound at 30 to 50 uM at pH 7.4 by PAMPA-BBB assay

[4] = Hepatotoxicity in human HepG2 cells assessed as reduction in cell viability at 20 to 100 uM incubated for 24 hrs by MTT assay; assay type: toxicity, cell-based; settings: hepg2, 24 h, dose 20-100 µM
[5] = Hepatotoxicity in mouse AML12 cells assessed as reduction in cell viability at 20 to 100 uM incubated for 24 hrs by MTT assay; assay type: toxicity, cell-based; settings: aml12, 24 h, dose 20-100 µM
[6] = target: T1, Acetylcholinesterase; assay: Inhibition of electric eel AChE
[7] = test system: PC-12; assay: Neuroprotective activity against H2O2-induced cell death in rat PC12 cells assessed as increase in survival rate pre-incubated for 3 hrs followed by H2O2 addition and measured after 24 hrs by MTT assay; assay type: functional, cell-based; settings: dose 1-20 µM, time 27.0 hrs
[8] = test system: BV-2; assay: Anti-neuroinflammatory activity against LPS-induced mouse BV-2 cells assessed as decrease in iNOS protein expression pre-incubated for 1 hr followed by LPS addition and measured after 24 hrs by Western blotting analysis; assay type: functional, cell-based; settings: dose 1-10 µM, time 25.0 hrs
[9] = test system: BV-2; assay: Anti-neuroinflammatory activity against LPS-induced mouse BV-2 cells assessed as decrease in COX-2 protein expression pre-incubated for 1 hr followed by LPS addition and measured after 24 hrs by Western blotting analysis; assay type: functional, cell-based; settings: dose 1-10 µM
[10] = test system: Mus musculus; assay: Antialzheimer activity in scopolamine-induced C57BL mouse model assessed as effect on swimming speed at 10 to 30 mg/kg, po administered for 7 days followed by scopolamine administration and measured after 4 days by Morris water maze test; assay type: functional, organism-based; settings: dose 10-30 mg/kg, time 11.0 day
[11] = target: T1, Acetylcholinesterase; assay: Inhibition of electric eel AChE assessed as dissociation constant using acetylthiocholine iodide as substrate pre-incubated for 30 mins followed by substrate addition and measured after 5 mins by DTNB reagent based Ellman's method
[12] = target: Acetylcholinesterase (Electrophorus electricus) (UniProt O42275); assay: Mixed type inhibition of electric eel AChE using acetylthiocholine iodide as substrate pre-incubated for 30 mins followed by substrate addition and measured after 5 mins by DTNB reagent based Ellman's method; settings: dose 0-0.4 µM, time 35.0 min
[13] = test system: Mus musculus; assay: Antialzheimer activity in scopolamine-induced C57BL mouse model assessed as increase in crossing frequency in platform area at 30 mg/kg, po administered for 7 days followed by scopolamine administration and measured after 5 days by Morris water maze test; assay type: functional, organism-based; settings: time 12.0 day
[14] = Metal chelating activity assessed as Cu2+-compound complex formation by measuring red shift in maximum absorption wavelength at 50 uM incubated for 1 hr in presence of CuCl2 by UV-Visible spectrophotometry
[15] = Acute toxicity in C57BL mouse assessed as lung damage upto 2000 mg/kg, po administered as single dose and measured after 2 weeks by hematoxylin and eosin staining based analysis; assay type: organism-based; settings: in vivo, 336 h
[16] = test system: BV-2; assay: Anti-neuroinflammatory activity against LPS-induced mouse BV-2 cells assessed as inhibition of TNF-alpha production pre-incubated for 1 hr followed by LPS addition and measured after 24 hrs by ELISA; assay type: functional, cell-based
[17] = test system: BV-2; assay: Anti-neuroinflammatory activity against LPS-induced mouse BV-2 cells assessed as inhibition of IL-1beta production pre-incubated for 1 hr followed by LPS addition and measured after 24 hrs by ELISA; assay type: functional, cell-based
[18] = Metal chelating activity assessed as Zn2+-compound complex formation by measuring blue shift in maximum absorption wavelength at 50 uM incubated for 1 hr in presence of ZnCl2 by UV-Visible spectrophotometry
[19] = Acute toxicity in C57BL mouse assessed as heart damage upto 2000 mg/kg, po administered as single dose and measured after 2 weeks by hematoxylin and eosin staining based analysis; assay type: organism-based; settings: in vivo, 336 h
[20] = test system: PC-12; assay: Cytotoxicity against rat PC12 cells assessed as reduction in cell viability at 20 to 50 uM incubated for 24 hrs by MTT assay; assay type: toxicity, cell-based; settings: pc-12, 24 h, dose 20-50 µM
[21] = test system: PC-12; assay: Antioxidant activity in H2O2-induced rat PC12 cells assessed as reduction in intracellular ROS level incubated for 1 hr followed by H2O2 addition and measured after 5 hrs by DCFH-DA staining based laser confocal microscopy; assay type: functional, cell-based; settings: dose 10-20 µM, time 6.0 hrs
[22] = test system: BV-2; assay: Cytotoxicity against mouse BV-2 cells assessed as reduction in cell viability at 20 to 50 uM incubated for 24 hrs by MTT assay; assay type: toxicity, cell-based; settings: bv-2, 24 h, dose 20-50 µM
[23] = Metal chelating activity assessed as Cu2+-compound complex formation by measuring drop in intensity of absorption curve at 50 uM incubated for 1 hr in presence of CuCl2 by UV-Visible spectrophotometry
[24] = test system: Mus musculus; assay: Antialzheimer activity in scopolamine-induced C57BL mouse model assessed as prevention of blurred borders in cortical cells of hippocampal region at 10 to 30 mg/kg, po administered for 7 days followed by scopolamine administration by hematoxylin and eosin staining based analysis; assay type: functional, organism-based; settings: dose 10-30 mg/kg
[25] = test system: Mus musculus; assay: Antialzheimer activity in scopolamine-induced C57BL mouse model assessed as prevention of irregular cellular arrangements in cortical cells of hippocampal region at 10 to 30 mg/kg, po administered for 7 days followed by scopolamine administration by hematoxylin and eosin staining based analysis; assay type: functional, organism-based; settings: dose 10-30 mg/kg
[26] = test system: BV-2; assay: Anti-neuroinflammatory activity against LPS-induced mouse BV-2 cells assessed as inhibition of NO production pre-incubated for 1 hr followed by LPS addition and measured after 24 hrs by Griess reagent based assay; assay type: functional, cell-based
[27] = Acute toxicity in C57BL mouse assessed as spleen damage upto 2000 mg/kg, po administered as single dose and measured after 2 weeks by hematoxylin and eosin staining based analysis; assay type: organism-based; settings: in vivo, 336 h
[28] = Toxicity in C57BL mouse assessed as change in body weight at 10 to 30 mg/kg, po measured after 7 days; assay type: organism-based; settings: in vivo, 168 h, dose 10-30 mg/kg, time 7 day
[29] = Acute toxicity in C57BL mouse assessed as kidney damage upto 2000 mg/kg, po administered as single dose and measured after 2 weeks by hematoxylin and eosin staining based analysis; assay type: organism-based; settings: in vivo, 336 h
[30] = test system: Mus musculus; assay: Antialzheimer activity in scopolamine-induced C57BL mouse model assessed as increase in residence time in platform area at 30 mg/kg, po administered for 7 days followed by scopolamine administration and measured after 5 days by Morris water maze test; assay type: functional, organism-based; settings: time 12.0 day
[31] = test system: Mus musculus; assay: Antialzheimer activity in scopolamine-induced C57BL mouse model assessed as decrease in escape latency at 10 to 30 mg/kg, po administered for 7 days followed by scopolamine administration and measured after 4 days by Morris water maze test; assay type: functional, organism-based; settings: dose 10-30 mg/kg, time 11.0 day
[32] = Acute toxicity in C57BL mouse assessed as liver damage upto 2000 mg/kg, po administered as single dose and measured after 2 weeks by hematoxylin and eosin staining based analysis; assay type: organism-based; settings: in vivo, 336 h

T1 sequence (O42275 whole entry): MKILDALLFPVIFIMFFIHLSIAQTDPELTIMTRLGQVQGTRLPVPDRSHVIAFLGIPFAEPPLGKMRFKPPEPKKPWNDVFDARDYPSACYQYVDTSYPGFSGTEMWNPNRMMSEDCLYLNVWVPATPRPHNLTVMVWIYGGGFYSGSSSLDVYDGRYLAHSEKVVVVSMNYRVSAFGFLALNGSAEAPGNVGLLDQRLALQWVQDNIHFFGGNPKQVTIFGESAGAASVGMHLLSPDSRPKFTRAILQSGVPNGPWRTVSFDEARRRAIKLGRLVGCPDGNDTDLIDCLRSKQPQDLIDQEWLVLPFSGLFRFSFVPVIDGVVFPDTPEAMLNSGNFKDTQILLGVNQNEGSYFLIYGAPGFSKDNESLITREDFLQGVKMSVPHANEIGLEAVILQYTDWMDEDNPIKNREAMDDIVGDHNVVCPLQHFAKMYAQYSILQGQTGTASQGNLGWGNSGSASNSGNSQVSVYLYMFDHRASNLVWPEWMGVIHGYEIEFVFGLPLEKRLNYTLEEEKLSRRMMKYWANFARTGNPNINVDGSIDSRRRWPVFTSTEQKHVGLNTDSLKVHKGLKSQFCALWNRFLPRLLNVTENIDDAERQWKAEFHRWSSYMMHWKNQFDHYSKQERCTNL
Sequence of Cholinesterase (P81908 whole entry): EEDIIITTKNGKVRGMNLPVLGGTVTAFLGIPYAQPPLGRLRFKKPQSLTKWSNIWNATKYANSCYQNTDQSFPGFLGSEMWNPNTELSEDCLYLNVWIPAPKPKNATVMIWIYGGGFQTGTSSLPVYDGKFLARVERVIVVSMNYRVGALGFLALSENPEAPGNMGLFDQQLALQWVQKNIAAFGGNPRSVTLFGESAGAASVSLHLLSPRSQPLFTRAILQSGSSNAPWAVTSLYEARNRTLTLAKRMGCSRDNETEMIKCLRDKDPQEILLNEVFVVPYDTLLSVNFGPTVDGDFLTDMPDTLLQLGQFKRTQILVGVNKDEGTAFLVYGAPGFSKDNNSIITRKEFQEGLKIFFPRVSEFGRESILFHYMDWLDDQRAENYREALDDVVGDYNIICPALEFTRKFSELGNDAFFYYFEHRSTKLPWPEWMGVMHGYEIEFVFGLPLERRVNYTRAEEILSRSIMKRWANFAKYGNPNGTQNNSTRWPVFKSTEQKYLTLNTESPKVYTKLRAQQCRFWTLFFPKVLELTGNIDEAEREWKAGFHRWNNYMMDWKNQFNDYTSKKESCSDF
Sequence of Acetylcholinesterase (Electrophorus electricus) (O42275 24-633 limits assumed): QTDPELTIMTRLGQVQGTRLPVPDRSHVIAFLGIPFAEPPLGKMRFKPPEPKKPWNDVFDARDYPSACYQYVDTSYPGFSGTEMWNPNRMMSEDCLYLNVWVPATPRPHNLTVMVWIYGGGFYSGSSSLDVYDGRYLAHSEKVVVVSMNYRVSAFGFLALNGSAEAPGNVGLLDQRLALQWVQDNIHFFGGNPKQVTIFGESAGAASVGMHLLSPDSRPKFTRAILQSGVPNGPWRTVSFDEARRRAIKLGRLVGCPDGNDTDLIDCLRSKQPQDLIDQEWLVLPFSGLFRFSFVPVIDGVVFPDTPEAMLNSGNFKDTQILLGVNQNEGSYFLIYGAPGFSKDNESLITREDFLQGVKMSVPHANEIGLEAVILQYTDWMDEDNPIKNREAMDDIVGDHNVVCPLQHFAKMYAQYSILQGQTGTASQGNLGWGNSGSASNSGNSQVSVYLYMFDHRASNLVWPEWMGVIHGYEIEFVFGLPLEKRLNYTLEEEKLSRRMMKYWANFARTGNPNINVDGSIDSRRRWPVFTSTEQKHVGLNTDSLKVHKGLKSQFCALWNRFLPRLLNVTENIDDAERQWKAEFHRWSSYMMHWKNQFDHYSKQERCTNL

With `O=C(CNS(=O)(=O)c1ccc(Cl)cc1)Nc1ccc2c(=O)n3c(nc2c1)CCC3` the IC50 [1] was over 50 µM and the IC50 [2] was 48.3 µM.

With `CCc1ccc(S(=O)(=O)NCC(=O)Nc2ccc3c(=O)n4c(nc3c2)CCC4)cc1` the IC50 [1] was over 50 µM and the IC50 [2] was 31.7 µM.

For `NS(=O)(=O)c1cc2c(cc1Cl)N=CNS2(=O)=O` [CHLOROTHIAZIDE], the Papp at 50 µM [3] was 1.36 ×10⁻⁶ cm/s.

For `O=C(CNS(=O)(=O)c1ccc(F)c(Cl)c1)Nc1ccc2c(=O)n3c(nc2c1)CCC3`, the IC50 [1] was over 50 µM and the IC50 [2] was 8.08 µM.

With `COc1ccc(Br)cc1S(=O)(=O)NCC(=O)Nc1ccc2c(=O)n3c(nc2c1)CCC3` the IC50 [1] was over 50 µM and the IC50 [2] was 5.22 µM.

For `O=c1c2ccccc2nc2n1CCC2` [DEOXYVASICINONE], the Activity [4] was “Non-Toxic”, the Activity [5] was “Non-Toxic” and the IC50 [6] was 82.5 µM.

Compound `O=C(CNS(=O)(=O)c1cccc(Br)c1)Nc1ccc2c(=O)n3c(nc2c1)CCC3` has an IC50 [1] of over 50 µM and an IC50 [2] of 7.88 µM.

Compound `O=C(CNS(=O)(=O)c1ccc(F)cc1)Nc1ccc2c(=O)n3c(nc2c1)CCC3` has an IC50 [1] of over 50 µM and an IC50 [2] of 5.68 µM.

For `Cc1ccc(S(=O)(=O)NCC(=O)Nc2ccc3c(=O)n4c(nc3c2)CCC4)cc1`, the IC50 [1] was over 50 µM and the IC50 [2] was 17.6 µM.

`COc1ccc(S(=O)(=O)NCC(=O)Nc2ccc3c(=O)n4c(nc3c2)CCC4)c(OC)c1` gave an IC50 [1] of over 50 µM and an IC50 [2] of 9.19 µM.

Compound `CCCc1ccc(S(=O)(=O)NCC(=O)Nc2ccc3c(=O)n4c(nc3c2)CCC4)cc1` has an IC50 [1] of over 50 µM and an IC50 [2] of over 50 µM.

Compound `COc1ccc(S(=O)(=O)NCC(=O)Nc2ccc3c(=O)n4c(nc3c2)CCC4)cc1` has an IC50 [1] of 32.9 µM and an IC50 [2] of 5.58 µM.

`O=C(CNS(=O)(=O)c1ccc(Br)cc1)Nc1ccc2c(=O)n3c(nc2c1)CCC3` showed an IC50 [1] of over 50 µM and an IC50 [2] of over 50 µM.

Work on `CNC(=C[N+](=O)[O-])NCCSCc1ccc(CN(C)C)o1` [RANITIDINE] yielded a Papp at 50 µM [3] of 0.06 ×10⁻⁶ cm/s.

For `O=C(CNS(=O)(=O)c1c(Cl)cccc1Cl)Nc1ccc2c(=O)n3c(nc2c1)CCC3`, the IC50 [1] was 47.7 µM and the IC50 [2] was 4.06 µM.

`O=C(CNS(=O)(=O)c1ccccc1)Nc1ccc2c(=O)n3c(nc2c1)CCC3` gave an IC50 [1] of 48.5 µM and an IC50 [2] of 5.39 µM.

With `O=C(CNS(=O)(=O)c1cc(Cl)c(F)cc1F)Nc1ccc2c(=O)n3c(nc2c1)CCC3` the IC50 [1] was over 50 µM and the IC50 [2] was over 50 µM.

In the case of `O=C(CNS(=O)(=O)c1ccccc1C(F)(F)F)Nc1ccc2c(=O)n3c(nc2c1)CCC3`, the Activity [7] is reported as “Dose-Dependent Effect”, the Activity [8] is reported as “Dose-Dependent Effect” and the Activity [9] is reported as “Dose-Dependent Effect”. The Activity [10] was “inactive”, the Ki [11] was 0.24 µM and the inhibition [12] was “Dose-Dependent Effect”. The Activity [13] was “Active”, the Activity [14] was “Active” and the Papp at 50 µM [3] was 10.5 ×10⁻⁶ cm/s. The Activity [15] was “Non-Toxic”, the IC50 [16] was 8.62 µM and the Activity ([16]; time 25.0 hrs) was “Dose-Dependent Effect”. For the same compound, the IC50 [17] was 1.69 µM, the Activity ([17]; time 25.0 hrs) was “Dose-Dependent Effect” and the Activity [18] was “Active”. For the same compound, the Activity [19] was “Non-Toxic”, the Activity [20] was “Non-Toxic” and the Activity [21] was “Dose-Dependent Effect”. The Activity [4] was “Non-Toxic”, the Activity [5] was “Non-Toxic” and the IC50 [1] was over 50 µM. For the same compound, the Activity [22] was “Non-Toxic”, the Activity [23] was “Active” and the Activity [24] was “Active”. The Activity [25] was “Active”, the IC50 [2] was 0.24 µM and the IC50 [26] was 3.34 µM. The Activity ([26]; time 25.0 hrs) was “Dose-Dependent Effect”, the Activity [27] was “Non-Toxic” and the Activity [28] was “Non-Toxic”. The Activity [29] was “Non-Toxic”, the Activity [30] was “Active” and the Activity [31] was “Active”. For the same compound, the Activity [32] was “Non-Toxic”.

In the case of `O=C(CNS(=O)(=O)c1cccc(OC(F)(F)F)c1)Nc1ccc2c(=O)n3c(nc2c1)CCC3`, the IC50 [1] is reported as over 50 µM and the IC50 [2] is reported as over 50 µM.

Source: ChEMBL document CHEMBL5528012, “Discovery of novel deoxyvasicinone derivatives with benzenesulfonamide substituents as multifunctional agents against Alzheimer's disease” (Eur J Med Chem, 2024)
